{"source": "patent US20100041089A1", "about": "“IMPROVED METHOD FOR DETECTING CHEMICAL […]” (priority 2006, published 2010)", "system": "yeast genes (expressed mRNA)", "assay": "DNA chip measurement of expressed mRNA of yeast genes after culture with a toxic chemical substance", "assay_type": "cell-based, Saccharomyces cerevisiae S288C", "conditions": "for level of expressed mRNA in the presence of chemical substance / level in the absence of chemical substance: cultured two hours with the chemical substance; for The level of expressed mRNA in the presence of chemical substance/The level of expressed mRNA in the absence of chemical substance: cultured two hours with substance", "procedure,_shortened": "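Expression is given as treated/untreated fluorescence ratio on a whole-genome yeast DNA chip, a ratio of two or more being significant. Log-phase S288C cultures in YPD at 25 °C received the chemical for 2 h at a dose that slows growth without killing. mRNA was reverse-transcribed with Cy3- or Cy5-dUTP.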"}
{"smiles": "[Cl][Cd][Cl]", "note": "[(2), CdCl2]", "values": [{"measurement": "The level of expressed mRNA in the presence of chemical substance/The level of expressed mRNA in the absence of chemical substance, yeast gene YBR036C", "setting": "gene YBR036C, Metabolism protein genes, DNA chip fluorescence ratio", "result": 1.7}, {"measurement": "The level of expressed mRNA in the presence of chemical substance/The level of expressed mRNA in the absence of chemical substance, yeast gene YBR298C", "setting": "gene YBR298C, Metabolism protein genes, DNA chip fluorescence ratio", "result": 1.0}, {"measurement": "The level of expressed mRNA in the presence of chemical substance/The level of expressed mRNA in the absence of chemical substance, yeast gene YDL067C", "setting": "gene YDL067C (mitochondria-located protein gene), yeast cultured two hours with chemical substance, DNA chip fluorescence ratio to control", "result": 1.0}, {"measurement": "The level of expressed mRNA in the presence of chemical substance/The level of expressed mRNA in the absence of chemical substance, yeast gene YDL078C", "setting": "gene YDL078C, Metabolism protein genes, DNA chip fluorescence ratio", "result": 1.1}, {"measurement": "The level of expressed mRNA in the presence of chemical substance/The level of expressed mRNA in the absence of chemical substance, yeast gene YDL215C", "setting": "gene YDL215C, Metabolism protein genes, DNA chip fluorescence ratio", "result": 1.5}, {"measurement": "The level of expressed mRNA in the presence of chemical substance/The level of expressed mRNA in the absence of chemical substance, yeast gene YDR079W", "setting": "gene YDR079W (mitochondria-located protein gene), yeast cultured two hours with chemical substance, DNA chip fluorescence ratio to control", "result": 1.1}, {"measurement": "The level of expressed mRNA in the presence of chemical substance/The level of expressed mRNA in the absence of chemical substance, yeast gene YDR297W", "setting": "gene YDR297W, Metabolism protein genes, DNA chip fluorescence ratio", "result": 0.8}, {"measurement": "The level of expressed mRNA in the presence of chemical substance/The level of expressed mRNA in the absence of chemical substance, yeast gene YDR387C", "setting": "gene YDR387C, Metabolism protein genes, DNA chip fluorescence ratio", "result": 0.9}, {"measurement": "The level of expressed mRNA in the presence of chemical substance/The level of expressed mRNA in the absence of chemical substance, yeast gene YGL035C", "setting": "gene YGL035C, Metabolism protein genes, DNA chip fluorescence ratio", "result": 1.4}, {"measurement": "The level of expressed mRNA in the presence of chemical substance/The level of expressed mRNA in the absence of chemical substance, yeast gene YGR062C", "setting": "gene YGR062C (mitochondria-located protein gene), yeast cultured two hours with chemical substance, DNA chip fluorescence ratio to control", "result": 1.0}, {"measurement": "The level of expressed mRNA in the presence of chemical substance/The level of expressed mRNA in the absence of chemical substance, yeast gene YGR287C", "setting": "gene YGR287C, Metabolism protein genes, DNA chip fluorescence ratio", "result": 1.0}, {"measurement": "The level of expressed mRNA in the presence of chemical substance/The level of expressed mRNA in the absence of chemical substance, yeast gene YJL070C", "setting": "gene YJL070C, Metabolism protein genes, DNA chip fluorescence ratio", "result": 0.9}, {"measurement": "The level of expressed mRNA in the presence of chemical substance/The level of expressed mRNA in the absence of chemical substance, yeast gene YJL096W", "setting": "gene YJL096W (mitochondria-located protein gene), yeast cultured two hours with chemical substance, DNA chip fluorescence ratio to control", "result": 1.0}, {"measurement": "The level of expressed mRNA in the presence of chemical substance/The level of expressed mRNA in the absence of chemical substance, yeast gene YJL180C", "setting": "gene YJL180C (mitochondria-located protein gene), yeast cultured two hours with chemical substance, DNA chip fluorescence ratio to control", "result": 1.6}, {"measurement": "The level of expressed mRNA in the presence of chemical substance/The level of expressed mRNA in the absence of chemical substance, yeast gene YKR009C", "setting": "gene YKR009C, Metabolism protein genes, DNA chip fluorescence ratio", "result": 1.2}, {"measurement": "The level of expressed mRNA in the presence of chemical substance/The level of expressed mRNA in the absence of chemical substance, yeast gene YLR295C", "setting": "gene YLR295C (mitochondria-located protein gene), yeast cultured two hours with chemical substance, DNA chip fluorescence ratio to control", "result": 1.1}, {"measurement": "The level of expressed mRNA in the presence of chemical substance/The level of expressed mRNA in the absence of chemical substance, yeast gene YLR351C", "setting": "gene YLR351C, Metabolism protein genes, DNA chip fluorescence ratio", "result": 1.4}, {"measurement": "The level of expressed mRNA in the presence of chemical substance/The level of expressed mRNA in the absence of chemical substance, yeast gene YLR375W", "setting": "gene YLR375W, Metabolism protein genes, DNA chip fluorescence ratio", "result": 1.5}, {"measurement": "The level of expressed mRNA in the presence of chemical substance/The level of expressed mRNA in the absence of chemical substance, yeast gene YMR023C", "setting": "gene YMR023C (mitochondria-located protein gene), yeast cultured two hours with chemical substance, DNA chip fluorescence ratio to control", "result": 1.3}, {"measurement": "The level of expressed mRNA in the presence of chemical substance/The level of expressed mRNA in the absence of chemical substance, yeast gene YMR267W", "setting": "gene YMR267W (mitochondria-located protein gene), yeast cultured two hours with chemical substance, DNA chip fluorescence ratio to control", "result": 1.8}, {"measurement": "The level of expressed mRNA in the presence of chemical substance/The level of expressed mRNA in the absence of chemical substance, yeast gene YMR267W", "setting": "gene YMR267W, Metabolism protein genes, DNA chip fluorescence ratio", "result": 1.8}, {"measurement": "The level of expressed mRNA in the presence of chemical substance/The level of expressed mRNA in the absence of chemical substance, yeast gene YMR278W", "setting": "gene YMR278W, Metabolism protein genes, DNA chip fluorescence ratio", "result": 1.7}, {"measurement": "The level of expressed mRNA in the presence of chemical substance/The level of expressed mRNA in the absence of chemical substance, yeast gene YMR293C", "setting": "gene YMR293C, Metabolism protein genes, DNA chip fluorescence ratio", "result": 1.5}, {"measurement": "The level of expressed mRNA in the presence of chemical substance/The level of expressed mRNA in the absence of chemical substance, yeast gene YNL073W", "setting": "gene YNL073W (mitochondria-located protein gene), yeast cultured two hours with chemical substance, DNA chip fluorescence ratio to control", "result": 1.4}, {"measurement": "The level of expressed mRNA in the presence of chemical substance/The level of expressed mRNA in the absence of chemical substance, yeast gene YNR072W", "setting": "gene YNR072W, Metabolism protein genes, DNA chip fluorescence ratio", "result": 1.5}, {"measurement": "The level of expressed mRNA in the presence of chemical substance/The level of expressed mRNA in the absence of chemical substance, yeast gene YOL096C", "setting": "gene YOL096C, Metabolism protein genes, DNA chip fluorescence ratio", "result": 1.0}, {"measurement": "The level of expressed mRNA in the presence of chemical substance/The level of expressed mRNA in the absence of chemical substance, yeast gene YOR180C", "setting": "gene YOR180C, Metabolism protein genes, DNA chip fluorescence ratio", "result": 1.1}, {"measurement": "The level of expressed mRNA in the presence of chemical substance/The level of expressed mRNA in the absence of chemical substance, yeast gene YOR316C", "setting": "gene YOR316C (mitochondria-located protein gene), yeast cultured two hours with chemical substance, DNA chip fluorescence ratio to control", "result": 2.5}, {"measurement": "The level of expressed mRNA in the presence of chemical substance/The level of expressed mRNA in the absence of chemical substance, yeast gene YOR363C", "setting": "gene YOR363C, Metabolism protein genes, DNA chip fluorescence ratio", "result": 2.0}, {"measurement": "The level of expressed mRNA in the presence of chemical substance/The level of expressed mRNA in the absence of chemical substance, yeast gene YPL040C", "setting": "gene YPL040C (mitochondria-located protein gene), yeast cultured two hours with chemical substance, DNA chip fluorescence ratio to control", "result": 1.0}, {"measurement": "The level of expressed mRNA in the presence of chemical substance/The level of expressed mRNA in the absence of chemical substance, yeast gene YPL134C", "setting": "gene YPL134C (mitochondria-located protein gene), yeast cultured two hours with chemical substance, DNA chip fluorescence ratio to control", "result": 1.0}, {"measurement": "The level of expressed mRNA in the presence of chemical substance/The level of expressed mRNA in the absence of chemical substance, yeast gene YPR184W", "setting": "gene YPR184W, Metabolism protein genes, DNA chip fluorescence ratio", "result": 1.4}, {"measurement": "level of expressed mRNA in the presence of chemical substance / level in the absence of chemical substance", "setting": "yeast gene YAL018C", "result": 1.9}, {"measurement": "The level of expressed mRNA in the presence of chemical substance/The level of expressed mRNA in the absence of chemical substance", "setting": "yeast gene YAL053W", "result": 0.9}, {"measurement": "level of expressed mRNA in the presence of chemical substance / level in the absence of chemical substance", "setting": "yeast gene YAR047C", "result": 1.7}, {"measurement": "level of expressed mRNA in the presence of chemical substance / level in the absence of chemical substance", "setting": "yeast gene YAR064W", "result": 0.9}, {"measurement": "level of expressed mRNA in the presence of chemical substance / level in the absence of chemical substance", "setting": "yeast gene YBL044W", "result": 2.7}, {"measurement": "The level of expressed mRNA in the presence of chemical substance/The level of expressed mRNA in the absence of chemical substance", "setting": "yeast gene YBL048W", "result": 7.9}, {"measurement": "The level of expressed mRNA in the presence of chemical substance/The level of expressed mRNA in the absence of chemical substance", "setting": "yeast gene YBL107C", "result": 1.1}, {"measurement": "level of expressed mRNA in the presence of chemical substance / level in the absence of chemical substance", "setting": "yeast gene YBR012C", "result": 1.7}, {"measurement": "level of expressed mRNA in the presence of chemical substance / level in the absence of chemical substance", "setting": "yeast gene YBR066C", "result": 1.3}, {"measurement": "level of expressed mRNA in the presence of chemical substance / level in the absence of chemical substance", "setting": "yeast gene YBR124W", "result": 1.4}, {"measurement": "level of expressed mRNA in the presence of chemical substance / level in the absence of chemical substance", "setting": "yeast gene YBR162C", "result": 0.5}, {"measurement": "level of expressed mRNA in the presence of chemical substance / level in the absence of chemical substance", "setting": "yeast gene YBR287W", "result": 1.9}, {"measurement": "level of expressed mRNA in the presence of chemical substance / level in the absence of chemical substance", "setting": "yeast gene YCL042W", "result": 2.5}, {"measurement": "level of expressed mRNA in the presence of chemical substance / level in the absence of chemical substance", "setting": "yeast gene YCL056C", "result": 1.4}, {"measurement": "level of expressed mRNA in the presence of chemical substance / level in the absence of chemical substance", "setting": "yeast gene YCR007C", "result": 1.6}, {"measurement": "level of expressed mRNA in the presence of chemical substance / level in the absence of chemical substance", "setting": "yeast gene YDL046W", "result": 1.4}, {"measurement": "The level of expressed mRNA in the presence of chemical substance/The level of expressed mRNA in the absence of chemical substance", "setting": "yeast gene YDL072C", "result": 1.1}, {"measurement": "The level of expressed mRNA in the presence of chemical substance/The level of expressed mRNA in the absence of chemical substance", "setting": "yeast gene YDL204W", "result": 1.9}, {"measurement": "The level of expressed mRNA in the presence of chemical substance/The level of expressed mRNA in the absence of chemical substance", "setting": "yeast gene YDL222C", "result": 1.1}, {"measurement": "level of expressed mRNA in the presence of chemical substance / level in the absence of chemical substance", "setting": "yeast gene YDR090C", "result": 3.0}]}
